Test results from the NIST ThermoML archive (doi:10.1021/je600515j).

What was measured:
[1] = relative permittivity at zero frequency (dimensionless); conditions: 101.33 kPa, Liquid, dielectric analyzer
[2] = relative permittivity at zero frequency (dimensionless); xn = mol fraction of the nth substance listed; conditions: 101 kPa, Liquid, dielectric analyzer

CC(O)CO (stereo unspecified) [1,2-propanediol]
[1]
Conditions	relative permittivity at zero frequency
303.15 K	27.87
308.15 K	27.13
313.15 K	26.43
318.15 K	25.76
323.15 K	25.08
328.15 K	24.57

CC(C)(N)CO [2-amino-2-methylpropan-1-ol]
[1]
Conditions	relative permittivity at zero frequency
303.15 K	20.59
308.15 K	20.11
313.15 K	19.69
318.15 K	19.27
323.15 K	18.88
328.15 K	18.37

CC(C)(N)CO [2-amino-2-methylpropan-1-ol] + O
relative permittivity at zero frequency, [2]
Conditions	303.15 K	308.15 K	313.15 K	318.15 K	323.15 K	328.15 K
x1 = 0.2	48.24	47.33	46.43	45.46	44.31	43.13
x1 = 0.4	33.65	32.99	32.33	31.8	31.15	30.11
x1 = 0.6	26.63	26.17	25.65	25.14	24.95	24.37
x1 = 0.8	23.35	22.82	22.28	21.87	21.42	21.03

CC(O)CNCC(C)O (stereo unspecified) [N-(2-hydroxypropyl)-2-hydroxy-1-propanamine]
[1]
Conditions	relative permittivity at zero frequency
303.15 K	13.87
308.15 K	13.75
313.15 K	13.62
318.15 K	13.49
323.15 K	13.36
328.15 K	13.26

CC(O)CNCC(C)O (stereo unspecified) [N-(2-hydroxypropyl)-2-hydroxy-1-propanamine] + O
relative permittivity at zero frequency, [2]
Conditions	303.15 K	308.15 K	313.15 K	318.15 K	323.15 K	328.15 K
x1 = 0.2	41.34	40.27	39.35	38.46	37.74	37.16
x1 = 0.4	24.52	24	23.48	23	22.52	22.19
x1 = 0.6	18.46	18.15	17.84	17.53	17.2	16.97
x1 = 0.8	16.65	16.45	16.26	16.05	15.83	15.66

CN(CCO)CCO [N-methyldiethanolamine]
[1]
Conditions	relative permittivity at zero frequency
303.15 K	21.84
308.15 K	21.33
313.15 K	20.83
318.15 K	20.32
323.15 K	19.79
328.15 K	19.28

CN(CCO)CCO [N-methyldiethanolamine] + O
relative permittivity at zero frequency, [2]
Conditions	303.15 K	308.15 K	313.15 K	318.15 K	323.15 K	328.15 K
x1 = 0.2	48.77	47.54	46.36	45.14	43.98	42.68
x1 = 0.4	33.92	33.09	32.16	31.25	30.37	29.41
x1 = 0.6	26.68	26.03	25.4	24.69	23.96	23.21
x1 = 0.8	23.44	22.86	22.31	21.77	21.15	20.56

OCCNCCO [diethanolamine]
[1]
Conditions	relative permittivity at zero frequency
303.15 K	24.69
308.15 K	24.3
313.15 K	23.86
318.15 K	23.28
323.15 K	22.63
328.15 K	22.13

OCCNCCO [diethanolamine] + O
relative permittivity at zero frequency, [2]
Conditions	303.15 K	308.15 K	313.15 K	318.15 K	323.15 K	328.15 K
x1 = 0.2	52.65	51.53	49.58	48.31	46.78	45.68
x1 = 0.4	39.11	38.06	36.95	35.81	34.68	33.73
x1 = 0.6	30.57	29.75	28.91	28.07	27.36	26.7
x1 = 0.8	26.95	26.41	25.86	25.42	24.81	24.13

OCCN(CCO)CCO [triethanolamine]
[1]
Conditions	relative permittivity at zero frequency
303.15 K	28.11
308.15 K	27.41
313.15 K	26.73
318.15 K	26.07
323.15 K	25.41
328.15 K	24.8

OCCN(CCO)CCO [triethanolamine] + O
relative permittivity at zero frequency, [2]
Conditions	303.15 K	308.15 K	313.15 K	318.15 K	323.15 K	328.15 K
x1 = 0.2	49.25	48.14	47.23	46.33	45.45	44.63
x1 = 0.4	36.34	35.44	34.53	33.6	32.73	31.93
x1 = 0.6	31.48	30.66	29.85	29.05	28.25	27.51
x1 = 0.8	29.67	28.92	28.17	27.43	26.69	26.04
